From the NIST ThermoML archive (doi:10.1021/je0496995)
± gives the expanded uncertainty stated by the source.

Test: mn = molality of the nth substance listed, in mol/kg
Conditions: Liquid; for viscosity: 101.3 kPa, Capillary tube (Ostwald / Ubbelohde) method; for mass density: 101.33 kPa, Pycnometric method

O=C(O)c1cccnc1 [3-carboxylpyridine] + Cc1cccnc1
Conditions	mass density [kg/m3]	viscosity [mPa·s]
293.15 K, m1 = 0.02469	956.7 ± 0.5	0.9504 ± 0.013
293.15 K, m1 = 0.107	959.5 ± 0.5	0.9659 ± 0.013
293.15 K, m1 = 0.2134	964.1 ± 0.5	0.9908 ± 0.013
293.15 K, m1 = 0.319	969.5 ± 0.5	1.015 ± 0.014
293.15 K, m1 = 0.424	975.8 ± 0.5	1.05 ± 0.014
293.15 K, m1 = 0.5284	983 ± 0.5	1.107 ± 0.015
303.15 K, m1 = 0.02469	947.3 ± 0.5	0.8363 ± 0.011
303.15 K, m1 = 0.107	950.1 ± 0.5	0.8514 ± 0.011
303.15 K, m1 = 0.2134	954.6 ± 0.5	0.8764 ± 0.012
303.15 K, m1 = 0.319	960 ± 0.5	0.9018 ± 0.012
303.15 K, m1 = 0.424	966.4 ± 0.5	0.9368 ± 0.013
303.15 K, m1 = 0.5284	973.5 ± 0.6	0.9891 ± 0.013
313.15 K, m1 = 0.02469	938.4 ± 0.5	0.7399 ± 0.01
313.15 K, m1 = 0.107	941.2 ± 0.5	0.7553 ± 0.01
313.15 K, m1 = 0.2134	945.7 ± 0.5	0.7804 ± 0.01
313.15 K, m1 = 0.319	951 ± 0.5	0.8048 ± 0.011
313.15 K, m1 = 0.424	957.5 ± 0.5	0.8396 ± 0.011
313.15 K, m1 = 0.5284	964.7 ± 0.6	0.8961 ± 0.012
323.15 K, m1 = 0.02469	929 ± 0.5	0.661 ± 0.0089
323.15 K, m1 = 0.107	931.8 ± 0.5	0.6762 ± 0.0092
323.15 K, m1 = 0.2134	936.3 ± 0.5	0.7014 ± 0.0095
323.15 K, m1 = 0.319	941.5 ± 0.5	0.7265 ± 0.0099
323.15 K, m1 = 0.424	947.8 ± 0.5	0.7613 ± 0.01
323.15 K, m1 = 0.5284	955.2 ± 0.6	0.8173 ± 0.011
333.15 K, m1 = 0.02469	920 ± 0.5	0.5981 ± 0.0081
333.15 K, m1 = 0.107	922.8 ± 0.5	0.6134 ± 0.0083
333.15 K, m1 = 0.2134	927.2 ± 0.5	0.6381 ± 0.0087
333.15 K, m1 = 0.319	932.5 ± 0.5	0.6632 ± 0.009
333.15 K, m1 = 0.424	938.7 ± 0.6	0.6983 ± 0.0095
333.15 K, m1 = 0.5284	946.2 ± 0.6	0.7541 ± 0.01
343.15 K, m1 = 0.02469	911 ± 0.5	0.5434 ± 0.0074
343.15 K, m1 = 0.107	913.8 ± 0.5	0.5594 ± 0.0076
343.15 K, m1 = 0.2134	918.2 ± 0.5	0.5833 ± 0.008
343.15 K, m1 = 0.319	923.5 ± 0.6	0.6086 ± 0.0083
343.15 K, m1 = 0.424	929.7 ± 0.6	0.6431 ± 0.0088
343.15 K, m1 = 0.5284	937.2 ± 0.6	0.6997 ± 0.0096
